Measurements as given in US11873486B2, “Modulating dsRNA editing, sensing, and metabolism to increase tumor immunity and improve the efficacy of cancer immunotherapy and/or modulators of intratumoral interferon” (Dana-Farber Cancer Institute, Inc., priority 2017, dated 2024).
“Also recorded” adds a separate entry of the source.

How the values were obtained:
ADA2 = molecular target: T1, ADA2 (Homo sapiens, UniProt Q9NZK5); settings: cited from earlier work
T1 sequence (Q9NZK5 30-511): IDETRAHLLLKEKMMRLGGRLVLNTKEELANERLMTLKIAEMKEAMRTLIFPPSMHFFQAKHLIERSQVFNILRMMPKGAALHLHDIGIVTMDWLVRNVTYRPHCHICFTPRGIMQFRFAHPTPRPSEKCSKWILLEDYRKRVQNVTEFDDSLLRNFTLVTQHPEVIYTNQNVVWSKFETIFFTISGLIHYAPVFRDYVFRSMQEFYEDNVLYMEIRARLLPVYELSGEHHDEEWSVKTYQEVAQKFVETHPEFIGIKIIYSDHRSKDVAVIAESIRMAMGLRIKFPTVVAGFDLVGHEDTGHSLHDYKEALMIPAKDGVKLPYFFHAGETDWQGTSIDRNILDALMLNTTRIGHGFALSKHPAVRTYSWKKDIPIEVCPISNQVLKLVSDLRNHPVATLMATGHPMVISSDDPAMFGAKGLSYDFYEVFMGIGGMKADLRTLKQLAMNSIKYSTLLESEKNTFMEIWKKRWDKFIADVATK

[1] = system: interferon stimulated genes in ADAR-dependent cell lines; experiment: Immunoblot of interferon stimulated gene expression after inhibitor treatment; assay type: cell-based, human; settings: for ISG expression / interferon signaling: antioxidant treatment of ADAR-dependent cell lines
Procedure: (§1) For drug treatment assays, cells were plated at a density of 3000 cells per well in a 96-well assay plate. The following day, cells were treated with ruxolitinib (INCB018424) from Selleck Chemicals; MRT67307 hydrocloride (SML0702) from Sigma-Aldrich; human interferon-alphal (#8927) from Cell Signaling; recombinant human IFN-beta 1a (mammalian) protein (114151) and recombinant human IFN-gamma protein (285-IF-100) from R&D Systems. For preincubation drug treatment experiments, cells were plated in the presence of ruxolitinib and were treated with interferon-0 and ruxolitinib the following day. Control wells were treated with dimethylsulfoxide (DMSO). Cell viability was assayed 3 or 6 days after drug treatment with CellTiter-Glo® Luminescent Cell Viability Assay kit (Promega). Viability was normalized to DMSO controls.
Cells were lysed in RIPA lysis buffer (Thermo Scientific) supplemented with 1× protease and phosphatase inhibitor cocktails (Roche). Protein extracts were analyzed by standard immunoblotting with the following antibodies: ADAR1 (D7E2M), MDA5 (D74E4), RIG-I (D14G6), ISG15 (22D2), USP18 (D4E7), PKR (#3072), STING (D2P2F), cGAS (D1D3G), IRF9 (D2T8M), PD-L1 (E1L3N), P-IRF3 Ser396 (4D4G), IRF3 (D6I4C), P-TBK1 Ser172 (D52C2), TBK1 (D1B4), P-EIF2α Ser51 (#9721), and EIF2α (D7D3) from Cell Signaling; P-PKR Thr446 (ab32036) from Abcam; R-actin C4 (sc-47778) from Santa Cruz. All antibodies were used at a dilution of 1:1000 except R-actin which was used at 1:4000). The following secondary antibodies were used at 1:5000 dilution: Goat anti-Rabbit IRDye 800CW (LI-COR, 926-32211) and Goat anti-Mouse IRDye […] (LI-COR, 926-68020). All immunoblots were imaged using the LI-COR digital imaging system and ImageJ.

[2] = system: ADAR1 knockout A549 cells; experiment: Viability of ADAR1 knockout A549 cells with interferon or drug treatment; assay type: cell-based, human
Procedure: as §1
for interferon treatment assays, cells were plated at a low density of 3000 cells per well in a 96-well assay plate. The following day, cells were treated with human interferon-alpha 1 (Cell Signaling, #8927) or recombinant human IFN-beta 1a (mammalian) protein (PBL Assay Science, 114151). Control wells were treated with water. Cell viability was assayed 3 or 6 days after drug treatment with CellTiter-Glo© Luminescent Cell Viability Assay kit (Promega). Viability was normalized to controls. Apoptosis was assayed 3 days after interferon treatment with Caspase-Glo®3/7 Assay kit (Promega). Dose curves were obtained using least-squares nonlinear regression on a standard four-parameter logistic model using GraphPad Prism.

B16 tumors = experiment: B16 tumor challenge (tumor volume, survival); assay type: in vivo, mouse; settings: topical, every three days
Source text: The designs of these animal studies and procedures were approved by the Dana Farber Cancer Institute IACUC committee. Dana Farber's specific-pathogen free facility was used for the storage and care of all mice. Seven-week old wild-type female C57BL/6J mice were obtained from Jackson laboratories (Bar Harbor, ME). A colony of B6.129S2-Tcra^tm1Mom/J (Tcra) T cell-deficient mice were bred on site. Mice were aged matched to be 7-12 weeks old at the time of tumor inoculation. For screening, 2.0×10^6 library-transduced B16-Cas9 cells resuspended in Hanks Balanced Salt Solution (Gibco, Thermo Fisher Scientific, Waltham, MA) were mixed 1:1 by volume with Matrigel® (Corning, Corning, NY) and subcutaneously injected into the right flank on day 0. Mice were vaccinated with 1.0×10^6 GM-CSF-secreting B16 (GVAX) cells that had been irradiated with […] on days 1 and 4 to elicit an anti-tumor immune response. Subsequently, mice were treated with 100 μg of rat monoclonal anti-PD1 antibody (clone: 29F.1A12) on days 9 and 12 via intraperitoneal injection. For validation assays, 1.0×10^6 tumor cells were subcutaneously injected into the right flank without matrigel. Tumors were measured every 3 days beginning on day 6 after challenge until time of death. Measurements were taken manually by collecting the longest dimension (length) and the longest perpendicular dimension (width). Tumor volume was estimated with the formula: (L×W^2)/2. CO2 inhalation was used to euthanize mice on the day of sacrifice.
The designs of animal studies and procedures were approved by the Dana Farber Cancer Institute IACUC and the Broad Institute IACUC committees. Specific pathogen-free facilities at the Dana Farber and the Broad Institute were used for the storage and care of all mice. Six-week old wild-type female C57BL/6J mice were obtained from Jackson laboratories, Bar Harbor ME A colony of B6.129S2-Tcra^tm1Mom/J (Tcra) T cell-deficient mice were bred on site at the Dana Farber. […] Tumors were measured every 3 days beginning on day 6 after challenge until time of death. […]

ADA1 = molecular target: T2, ADA1 (Homo sapiens, UniProt P00813); settings: cited from earlier work
T2 sequence (P00813 1-363): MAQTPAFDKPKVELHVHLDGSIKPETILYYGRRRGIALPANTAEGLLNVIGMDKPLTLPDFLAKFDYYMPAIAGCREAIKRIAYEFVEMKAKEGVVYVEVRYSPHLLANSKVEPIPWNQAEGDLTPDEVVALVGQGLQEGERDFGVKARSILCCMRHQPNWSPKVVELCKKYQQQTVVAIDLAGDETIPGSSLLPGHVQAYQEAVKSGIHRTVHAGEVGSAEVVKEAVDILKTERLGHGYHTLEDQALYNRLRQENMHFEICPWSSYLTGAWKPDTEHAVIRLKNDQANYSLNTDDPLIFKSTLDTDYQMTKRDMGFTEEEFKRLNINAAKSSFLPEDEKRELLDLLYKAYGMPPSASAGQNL

B16 tumor cells = experiment: In vitro cytokine stimulation and growth inhibition assay; assay type: cell-based, mouse; settings: Adar-deficient versus control B16 tumor cells, 72 hours
Procedure: FIG. 9 includes 3 panels, identified as panels A, B, and C, which provide exemplary mechanisms of ADAR-induced sensitivity to checkpoint blockade. […] A certain number of B16 tumor cells (50 k; Adar null or control) were stimulated in vitro with cytokine for 72 hours and the cell numbers were then counted. […] A certain number of B16 tumor cells (50 k; Adar null or control) were stimulated with cytokine in vitro, washed to remove cytokine (for IFNβ), and evaluated via IFNβ ELISA. […] A certain number of B16 tumor cells (50 k; Adar null or control) were stimulated in vitro with cytokine for 72 hours and stained for Class I MHC and PD-L1.
Tumor cells were engineered as noted above and plated in DMEM+10% FBS containing the indicated combinations of cytokines: IFN (1,000 U/ml, PBL), IFN (100 ng/ml, Cell Signaling Technologies), TNF (10 ng/ml, PreproTech). For rescue/re-expression experiments, 10,000 cells were plated in 96-well plates and viable cells were enumerated after 72 hours using Cell Titer-Glo® (Promega, G7570). For all other growth inhibition assays, 50,000 cells were plated in 12-well plates and viable cells were counted after 72 hours using the Countess automated cell counting system (Thermo Fisher Scientific, C10227).

[3] = animals bearing Adar1 null B16 tumors

Compound: Nc1ccnc2c1ncn2[C@@H]1O[C@H](CO)[C@@H](O)[C@H]1O [1-deazaadenosine]
- inhibition of ADA2 (ADA2): can inhibit both ADA1 and ADA2

Compound: c1ccc2c(c1)[I+]c1ccccc1-2 [DPI, diphenylene iodonium]
- ISG expression / interferon signaling [1]: partially decreased ISG expression
- ISG expression / interferon signaling ([1]; listed as diphenylene iodonium (DPI)): partially alleviates interferon signaling

Compound: Cl.O=C(NCCCNc1nc(Nc2cccc(CN3CCOCC3)c2)ncc1C1CC1)C1CCC1 [MRT67307, MRT67307 hydrocloride]
- ISG expression ([1]; TBK1 inhibitor treatment): reduced

Compound: COc1cccc2c1C(=O)c1c(O)c3c(c(O)c1C2=O)C[C@@](O)(C(=O)CO)C[C@@H]3O[C@H]1C[C@H](N)[C@H](O)[C@H](C)O1 [doxorubicin]
- sensitization to ADAR1 knockout [2]: failed to sensitize A549 cells to ADAR1 knockout

Compound: CC(C)Cn1cnc2c(N)nc3ccccc3c21 [imiquimod]
- survival (B16 tumors; [3]): enhanced survival
- tumor growth (B16 tumors; [3]): significantly slowed tumor growth
- survival (B16 tumors; animals bearing control B16 tumors): nor topical therapy with imiquimod, a TLR7 agonist, increased the survival

Compound: C[C@@H]1O[C@@H](O[C@H]2[C@H](Oc3cc(O)c4c(c3)O[C@H](c3ccc(O)cc3)CC4=O)O[C@H](CO)[C@@H](O)[C@@H]2O)[C@H](O)[C@H](O)[C@H]1O [naringin]
- inhibition of ADA1 (ADA1): potent ADA1 inhibitor

Compound: OC[C@H]1O[C@@H](n2cnc3c2NC=NC[C@H]3O)C[C@@H]1O [pentostatin]
- inhibition of ADA2 (ADA2): can inhibit both ADA1 and ADA2

Compound: IFNγ
- cytokine-induced growth arrest (B16 tumor cells): increases IFNβ and IFNγ-induced growth arrest; also recorded: increases susceptibility to IFNβ and IFNγ

Compound: Type II interferon: recombinant human IFN-gamma protein (R&D Systems)
- sensitization to ADAR1 knockout [2]: did not sensitize A549 cells to ADAR1 knockout

Compound: erythro-9-(2-hydroxy-3-nonyl)adenine [EHNA]
- inhibition of ADA1 (ADA1): specifically inhibits ADA1
